# Reference: PubChem BioAssay (NCI)
#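 In this assay, cells in 96-well plates receive the compound at five concentrations for 48 hours. Endpoints are linearly interpolated between the surrounding concentrations. GI50: concentration for 50% inhibition of growth. TGI is the concentration that stops growth completely.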
# How the values were obtained:
# Assay in all cases: growth of human tumour cells (NCI), 48 h
# MALME-3M melanoma = system: MALME-3M melanoma
# LOX IMVI melanoma = system: LOX IMVI melanoma
# NCI-H460 lung = system: NCI-H460 lung
# EKVX NSCLC = system: EKVX NSCLC
# NCI/ADR-RES ovarian = system: NCI/ADR-RES ovarian
# NCI-H226 lung = system: NCI-H226 lung
# MOLT-4 leukemia = system: MOLT-4 leukemia
# K-562 leukemia = system: K-562 leukemia
# HOP-92 NSCLC = system: HOP-92 NSCLC
# NCI-H23 lung = system: NCI-H23 lung
# IGROV1 ovarian = system: IGROV1 ovarian
# HS 578T breast = system: HS 578T breast
# ACHN renal = system: ACHN renal
# HOP-62 NSCLC = system: HOP-62 NSCLC
# SK-MEL-5 melanoma = system: SK-MEL-5 melanoma
# SR leukemia = system: SR leukemia
# HCT-116 colon = system: HCT-116 colon
# SF-295 CNS = system: SF-295 CNS
# SW-620 colon = system: SW-620 colon
# TK-10 renal = system: TK-10 renal
# DU-145 prostate = system: DU-145 prostate
# SK-MEL-28 melanoma = system: SK-MEL-28 melanoma
# OVCAR-3 ovarian = system: OVCAR-3 ovarian
# HT29 colon = system: HT29 colon
# UACC-257 melanoma = system: UACC-257 melanoma
# CCRF-CEM leukemia = system: CCRF-CEM leukemia
# M14 melanoma = system: M14 melanoma
# A498 renal = system: A498 renal
# RPMI-8226 leukemia = system: RPMI-8226 leukemia
# OVCAR-4 ovarian = system: OVCAR-4 ovarian
# OVCAR-5 ovarian = system: OVCAR-5 ovarian
# 786-0 renal = system: 786-0 renal
# SNB-19 CNS = system: SNB-19 CNS
# OVCAR-8 ovarian = system: OVCAR-8 ovarian
# CAKI-1 renal = system: CAKI-1 renal
# UACC-62 melanoma = system: UACC-62 melanoma
# SN12C renal = system: SN12C renal
# SK-OV-3 ovarian = system: SK-OV-3 ovarian
# U251 CNS = system: U251 CNS
# SNB-75 CNS = system: SNB-75 CNS
# MCF7 breast = system: MCF7 breast
# KM12 colon = system: KM12 colon
# RXF 393 renal = system: RXF 393 renal
# NCI-H522 lung = system: NCI-H522 lung
# SK-MEL-2 melanoma = system: SK-MEL-2 melanoma
# PC-3 prostate = system: PC-3 prostate
# A549 NSCLC = system: A549 NSCLC
# BT-549 breast = system: BT-549 breast
# HCC-2998 colon = system: HCC-2998 colon
# SF-539 CNS = system: SF-539 CNS
# HCT-15 colon = system: HCT-15 colon
# COLO 205 colon = system: COLO 205 colon
# UO-31 renal = system: UO-31 renal
# SF-268 CNS = system: SF-268 CNS
# MDA-MB-231 breast = system: MDA-MB-231 breast
# MDA-MB-435 = system: MDA-MB-435
smiles,measurement,setting,value
COc1ccc(C[C@H]2COC(=O)[C@@H]2Cc2ccc(O)cc2)cc1OC,TGI,MALME-3M melanoma,> 100 µM
same,TGI,LOX IMVI melanoma,> 100 µM
same,TGI,NCI-H460 lung,> 100 µM
same,TGI,EKVX NSCLC,> 100 µM
same,TGI,NCI/ADR-RES ovarian,> 100 µM
same,TGI,NCI-H226 lung,> 100 µM
same,TGI,MOLT-4 leukemia,> 100 µM
same,TGI,K-562 leukemia,> 100 µM
same,TGI,HOP-92 NSCLC,> 100 µM
same,TGI,NCI-H23 lung,> 100 µM
same,TGI,IGROV1 ovarian,> 100 µM
same,TGI,HS 578T breast,> 100 µM
same,TGI,ACHN renal,> 100 µM
same,TGI,HOP-62 NSCLC,> 100 µM
same,TGI,SK-MEL-5 melanoma,> 100 µM
same,TGI,SR leukemia,> 100 µM
same,TGI,HCT-116 colon,> 100 µM
same,TGI,SF-295 CNS,> 100 µM
same,TGI,SW-620 colon,> 100 µM
same,TGI,TK-10 renal,> 100 µM
same,TGI,DU-145 prostate,> 100 µM
same,TGI,SK-MEL-28 melanoma,> 100 µM
same,TGI,OVCAR-3 ovarian,> 100 µM
same,TGI,HT29 colon,> 100 µM
same,TGI,UACC-257 melanoma,> 100 µM
same,TGI,CCRF-CEM leukemia,> 100 µM
same,TGI,M14 melanoma,> 100 µM
same,TGI,A498 renal,> 100 µM
same,TGI,RPMI-8226 leukemia,> 100 µM
same,TGI,OVCAR-4 ovarian,> 100 µM
same,TGI,OVCAR-5 ovarian,> 100 µM
same,TGI,786-0 renal,> 100 µM
same,TGI,SNB-19 CNS,> 100 µM
same,TGI,OVCAR-8 ovarian,> 100 µM
Oc1cccc(Cn2c(-c3cccc(O)c3O)nc3ccccc32)c1O,GI50,CAKI-1 renal,2.26 µM
same,TGI,CAKI-1 renal,5.85 µM
same,GI50,UACC-62 melanoma,3.1 µM
same,TGI,UACC-62 melanoma,12.6 µM
same,GI50,SN12C renal,3.4 µM
same,TGI,SN12C renal,16.3 µM
same,GI50,LOX IMVI melanoma,2.84 µM
same,TGI,LOX IMVI melanoma,15.3 µM
same,GI50,NCI-H460 lung,3.59 µM
same,TGI,NCI-H460 lung,16.3 µM
same,GI50,SK-OV-3 ovarian,13.9 µM
same,TGI,SK-OV-3 ovarian,75.4 µM
same,GI50,NCI/ADR-RES ovarian,2.34 µM
same,TGI,NCI/ADR-RES ovarian,8.69 µM
same,GI50,NCI-H226 lung,3.95 µM
same,TGI,NCI-H226 lung,21.9 µM
same,GI50,MOLT-4 leukemia,3.21 µM
same,TGI,MOLT-4 leukemia,> 100 µM
same,GI50,U251 CNS,4.44 µM
same,TGI,U251 CNS,26.2 µM
same,GI50,SNB-75 CNS,26.2 µM
same,TGI,SNB-75 CNS,> 100 µM
same,GI50,K-562 leukemia,5.56 µM
same,TGI,K-562 leukemia,> 100 µM
same,GI50,HOP-92 NSCLC,36.8 µM
same,TGI,HOP-92 NSCLC,> 100 µM
same,GI50,NCI-H23 lung,3.02 µM
same,TGI,NCI-H23 lung,14.1 µM
same,GI50,IGROV1 ovarian,34 µM
same,TGI,IGROV1 ovarian,> 100 µM
same,GI50,MCF7 breast,1.44 µM
same,TGI,MCF7 breast,13.8 µM
same,GI50,HS 578T breast,26.9 µM
same,TGI,HS 578T breast,> 100 µM
same,GI50,ACHN renal,2.57 µM
same,TGI,ACHN renal,11.8 µM
same,GI50,HOP-62 NSCLC,3.77 µM
same,TGI,HOP-62 NSCLC,38.7 µM
same,GI50,KM12 colon,8.62 µM
same,TGI,KM12 colon,30.2 µM
same,GI50,SK-MEL-5 melanoma,5.76 µM
same,TGI,SK-MEL-5 melanoma,18.1 µM
same,GI50,SR leukemia,3.42 µM
same,TGI,SR leukemia,> 100 µM
same,GI50,HCT-116 colon,2.24 µM
same,TGI,HCT-116 colon,10.9 µM
same,GI50,SF-295 CNS,1.88 µM
same,TGI,SF-295 CNS,10.5 µM
same,GI50,RXF 393 renal,5.82 µM
same,TGI,RXF 393 renal,25.4 µM
same,GI50,SW-620 colon,6.82 µM
same,TGI,SW-620 colon,60.1 µM
same,GI50,TK-10 renal,1.88 µM
same,TGI,TK-10 renal,7.52 µM
same,GI50,DU-145 prostate,4.89 µM
same,TGI,DU-145 prostate,20.5 µM
same,GI50,SK-MEL-28 melanoma,10.9 µM
same,TGI,SK-MEL-28 melanoma,27.6 µM
same,GI50,OVCAR-3 ovarian,0.0683 µM
same,TGI,OVCAR-3 ovarian,0.76 µM
same,GI50,HT29 colon,15.5 µM
same,TGI,HT29 colon,> 100 µM
same,GI50,NCI-H522 lung,7.88 µM
same,TGI,NCI-H522 lung,49.1 µM
same,GI50,SK-MEL-2 melanoma,42 µM
same,TGI,SK-MEL-2 melanoma,> 100 µM
same,GI50,PC-3 prostate,6.69 µM
same,TGI,PC-3 prostate,34.2 µM
same,GI50,A549 NSCLC,14.1 µM
same,TGI,A549 NSCLC,40.9 µM
same,GI50,UACC-257 melanoma,19.3 µM
same,TGI,UACC-257 melanoma,50.1 µM
same,GI50,BT-549 breast,18.9 µM
same,TGI,BT-549 breast,81.1 µM
same,GI50,HCC-2998 colon,11 µM
same,TGI,HCC-2998 colon,30 µM
same,GI50,CCRF-CEM leukemia,7.56 µM
same,TGI,CCRF-CEM leukemia,> 100 µM
same,GI50,SF-539 CNS,9.49 µM
same,TGI,SF-539 CNS,38.4 µM
same,GI50,HCT-15 colon,2.08 µM
same,TGI,HCT-15 colon,14.9 µM
same,GI50,COLO 205 colon,11.7 µM
same,TGI,COLO 205 colon,32.2 µM
same,GI50,UO-31 renal,12.8 µM
same,TGI,UO-31 renal,> 100 µM
same,GI50,SF-268 CNS,4.74 µM
same,TGI,SF-268 CNS,28.7 µM
same,GI50,M14 melanoma,3.3 µM
same,TGI,M14 melanoma,15.5 µM
same,GI50,A498 renal,17.6 µM
same,TGI,A498 renal,60.4 µM
same,GI50,RPMI-8226 leukemia,9.69 µM
same,TGI,RPMI-8226 leukemia,> 100 µM
same,GI50,OVCAR-4 ovarian,5.2 µM
same,TGI,OVCAR-4 ovarian,> 100 µM
same,GI50,OVCAR-5 ovarian,10.9 µM
same,TGI,OVCAR-5 ovarian,48.1 µM
same,GI50,786-0 renal,1.86 µM
same,TGI,786-0 renal,14.1 µM
same,GI50,MDA-MB-231 breast,0.92 µM
same,TGI,MDA-MB-231 breast,7.71 µM
same,GI50,SNB-19 CNS,13.8 µM
same,TGI,SNB-19 CNS,> 100 µM
same,GI50,OVCAR-8 ovarian,11.7 µM
same,TGI,OVCAR-8 ovarian,53.1 µM
same,GI50,MDA-MB-435,2.13 µM
same,TGI,MDA-MB-435,15.3 µM
